Data: ChEMBL document CHEMBL1125116 (J Med Chem, 1990)

Target: D(2) dopamine receptor (Rattus norvegicus, UniProt P61169)
Experiment: Evaluated in vitro for the affinity towards Dopamine receptor D2 of rat striatal tissue

Sequence of D(2) dopamine receptor (P61169 whole entry): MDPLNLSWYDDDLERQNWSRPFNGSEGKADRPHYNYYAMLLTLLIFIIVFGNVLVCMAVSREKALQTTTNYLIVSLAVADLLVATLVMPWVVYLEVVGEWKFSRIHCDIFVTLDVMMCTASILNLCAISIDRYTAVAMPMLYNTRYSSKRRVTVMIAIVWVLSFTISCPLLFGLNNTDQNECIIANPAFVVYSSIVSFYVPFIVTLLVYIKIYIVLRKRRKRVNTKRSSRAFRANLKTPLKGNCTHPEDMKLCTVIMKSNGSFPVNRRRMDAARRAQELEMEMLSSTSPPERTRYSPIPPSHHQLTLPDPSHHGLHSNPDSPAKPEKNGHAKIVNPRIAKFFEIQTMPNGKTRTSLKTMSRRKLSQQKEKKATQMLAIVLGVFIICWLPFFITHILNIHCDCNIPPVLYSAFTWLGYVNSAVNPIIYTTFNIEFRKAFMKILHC

O=C(CCCN1CCC2(CC1)C(=O)NCN2c1ccccc1)c1ccc(F)cc1I was tested, and the Kd was 0.25 nM.
